Test results published in patent US20140249165A1, “PURINE DERIVATIVES FOR TREATMENT OF CYSTIC DISEASES” (Genzyme Corporation, priority 2006, published 2014).
Where two headings read alike, the source gives them in different places.

How the values were obtained:
[1] = test system: MDCK cysts; settings: read-out: IC50 of inhibition of cystic growth; MDCK cysts in 3D collagen I gel, 96 hours incubation, Alamar Blue
[2] = test system: cystic kidneys (cell cycle and transcription proteins); assay: Western blot analysis of cystic kidney protein extracts; assay type: in vivo, mouse; settings: cystic kidneys of treated mice
Procedure: Kidneys were homogenized in RIPA buffer (10 mM HEPES, pH 8.0, 100 mM NaCl, 1% Triton X-100, 0.1% SDS, 0.5% sodium deoxycholate, 1 mM DTT, 1 mM EDTA, 1 mM NaF, 1 mM Na3VO4) with Complete™ protease inhibitor cocktail (Roche Diagnostic GmbH, Mannheim, Germany). 30 μg of protein samples were separated in 4-12% SDS/acrylamide gels (Invitrogen, Carlsbad, Calif.). Gels were soaked in transfer buffer (192 mM glycine, 25 mM Tris, 10% methanol, pH 8.3) and transferred to Immobilone-P membranes (Millipore Corporation, Bedford, Mass.). Membranes were rehydrated with methanol and incubated in blocking buffer (5% powdered milk or 3% BSA in PBS) for 30 min. Membranes were incubated overnight at 4° C. with primary antibodies against RNApolII-p, p35/p25 (Abcam, Cambridge, Mass.); Rb-p, cycD1, cycD1-p, ERK2, ERK1/2-p (Cell Signaling, Danvers, Mass.); Rb2, RBBP, cycD3, caspase-2, caspase-3, ApaF1, Bcl-2, Bcl-XL, BAD (BD Biosciences, San Jose, Calif.); CDK7, CDK9, PCNA, GAPDH (US Biologicals, Swampscott, Mass.); cycD2 (BioSource International, Camarillo, Calif.), washed in TBST and incubated with HRP-labeled secondary antibodies as recommended by the manufacturer Immunoreactive proteins were detected using enhanced chemi-luminescence (Amersham Pharmacia Biotech, Little Chalfont Buckinghamshire, England).

[3] = test system: jck mouse model of PKD
[4] = test system: jck kidney; assay: PCNA and TUNEL staining of jck kidney sections; assay type: in vivo, mouse; settings: Roscovitine treated jck kidney
[5] = test system: cpk model of PKD; settings: cpk mice, 100 mg/kg IP daily, day 7 till day 21
[6] = jck female, 150 mg/kg IP daily, continuous 5 W
[7] = jck male, 50 mg/kg IP daily, continuous 5 W
[8] = jck male, 150 mg/kg IP daily, continuous 5 W (Table 2)
[9] = jck male, 150 mg/kg, daily dosing for 5 weeks (Table 2a)
[10] = jck male, 150 mg/kg, pulse treatment 5 W (1/1): 1 week on, 1 week off for 5 weeks
[11] = jck male, 150 mg/kg, pulse treatment 5 W (3/2): 3 weeks on, 2 weeks off

CC[C@H](CO)Nc1nc(N(C)Cc2ccccc2)c2ncn(C(C)C)c2n1 was tested, and the IC50 [1] was 190 µM.

CC[C@H](CO)Nc1nc(NCc2ccccc2)c2ncn(C(C)C)c2n1 [Roscovitine, 6-benzylamino-2-(R)-[(1-ethyl-2-hydroxy)ethylamino]-9-isopropylpurine] was tested, and the “Cyclin D2 and D3 expression” value [2] was “downregulated”, the “Level of ERK 1/2 activation” value [2] was “decreasing the level of ERK 1/2 activation” and the “Levels of Rb associated proteins Rb2 and RBB2” value [2] was “normalized”. For the same molecule, the “Phosphorylation level of cyclin D1 (Thr-286)” value [2] was “normalized phosphorylation level of cyclin D1”, the Rb phosphorylation [2] was “dephosphorylation of Rb3” and the “RNA pol II phosphorylation” value ([2]; vs WT controls) was “reduced levels of RNA pol II phosphorylation”. The BUN [3, 6] was 31.09 ± 6.12 mg/dL, the Body weight [3, 6] was 19.79 ± 0.80 g and the Cystic volume [3, 6] was 0.74 ± 0.24 % BW. It also gave a BUN [3, 7] of 51.25 ± 10.19 mg/dL, a Body weight [3, 7] of 20.54 ± 1.66 g and a Cystic volume [3, 7] of 2.25 ± 0.66 % BW. For the same molecule, the BUN [3, 8] was 26.78 ± 3.31 mg/dL, the Body weight [3, 8] was 21.52 ± 1.78 g and the Cystic volume [3, 8] was 0.98 ± 0.15 % BW. The BUN [3, 9] was 28.89 ± 7.51 mg/dL, the Body weight [3, 9] was 22.33 ± 1.05 g and the Cystic volume [3, 9] was 1.10 ± 0.41 % BW. It also gave a BUN [3, 10] of 43.90 ± 13.08 mg/dL, a Body weight [3, 10] of 22.14 ± 1.10 g and a Cystic volume [3, 10] of 1.28 ± 0.22 % BW. The BUN [3, 11] was 27.60 ± 4.32 mg/dL, the Body weight [3, 11] was 22.77 ± 0.39 g and the Cystic volume [3, 11] was 1.29 ± 0.40 % BW. The “BUN” value ([3]; jck mice, 50 mg/kg) was “reduced”, the “BUN” value ([3]; jck mice, 150 mg/kg) was “normalized” and the “Tolerability (weight loss, mortality, toxicity)” value ([3]; jck mice, 50 or 150 mg/kg IP) was “well tolerated with no weight loss, mortality or toxicity”. The “Cystogenesis with intermittent dosing” value ([3]; jck mice, daily for one week followed by one week off, total of 5 weeks) was “reduction of cystogenesis was detected”, the “Anti-cystic effect after drug withdrawal” value ([3]; jck/jck males, 150 mg/kg daily for 3 weeks, followed by 2 weeks without treatment) was “long lasting anti-cystic effect was detected with normalized levels of BUN” and the PCNA-positive cells ([4]; PCNA immunostaining) was “quantitative reduction in PCNA-positive cells”. The TUNEL-positive cells ([4]; TUNEL staining) was “reduced the number of TUNEL-positive cells”, the BUN [5] was 54.58 ± 9.60 mg/dL and the Body weight [5] was 9.75 ± 1.00 g. For the same molecule, the Creatinine [5] was 0.29 ± 0.07 mg/dL and the Cystic volume [5] was 14.62 ± 2.16 % BW.
